How the values were obtained:
Clostridioides difficile = details: known [36, 40, 41]; cited from earlier work
T helper 17 (TH17) cells = details: reported [30]; cited from earlier work
C. difficile 630 [1] = experiment: Electron microscopy (SEM/TEM) after isoalloLCA treatment; format: cell-based, Clostridioides difficile; details: 8 μM isoalloLCA, 5 hours, WCA medium
Method: (§1) FIG. 4C is typical scanning electron microscope images (SEM, left panels) and transmission electron microscope images (TEM, right panels) when C. difficile 630 and VRE were cultured for 5 hours in a WCA medium containing or not containing 8 μM isoalloLCA. The scale bars indicate 1.0 μm (SEM), 200 nm (C. difficile 630 TEM), and 500 nm (VRE TEM). The arrows indicate the shape change after isoalloLCA treatment.
(§2) Bacterial cultures incubated with or without isoalloLCA were collected after 5 hr incubation for electron microscopy samples. For scanning electron microscopy, 10-30 μL of culture was spotted on the Nano percolator membrane (JEOL) and fixed in freshly prepared 2.5% glutaraldehyde solution. After overnight fixation at 4° C., samples were washed in 0.1 M phosphate buffer (pH 7.4, Muto Pure Chemicals), fixed with 1.0% osmium tetroxide (TAAB Laboratories) for 2 hr at 4° C., and treated with a series of increasing concentrations of ethanol. Samples were dried up with critical point dryer (CPD300, Leica Biosystems) and coated with about 2 nm thickness of osmium using a conductive osmium coater (Neoc-ST, Meiwafosis). SEM images were acquired using the SU6600 (Hitachi High Tech) at electron voltage of 5 keV.
(§3) For transmission electron microscopy, microbial pellets were prepared by centrifugation (13,000 rpm, 2 min) from 25 mL bacterial cultures. […]

C. difficile 630 [2] = experiment: Bacterial growth inhibition assay (OD 600); format: cell-based, Clostridioides difficile
Description: (§4) Clostridioides difficile strain 630 (ATCC BAA-1382), Clostridioides difficile VPI 10463 (ATCC 43255), vancomycin-resistant Enterococcus faecium (ATCC 700221), Streptococcus dysgalactiae subsp. equisimilis (ATCC 12394), carbapenemase-resistant Klebsiella pneumoniae (ATCC BAA-1705), and Salmonella enterica subsp. enterica (ATCC 14028) were purchased from the American Type Culture Collection (ATCC).
(§5) From fresh colonies grown on BHK blood agar plates (Kyokuto), a primary suspension adjusted to OD 600 of 0.63 was prepared in WCA medium. Subsequently, the secondary suspension was prepared by diluting 100 μL of primary suspension into a total of 2.4 mL of medium. 10 μL of secondary suspension was inoculated to a total of 200 μL of medium containing varying concentrations ([…], 6.25, 12.5, 25, and 50 μM) of bile acids; DCA, LCA, 3-oxoLCA, 3-oxoalloLCA, isoLCA, alloLCA, and isoalloLCA. The growth of bacteria was monitored every 0.5-1 hr by OD 600 measurement using a microplate reader (Sunrise Thermo, Tecan) set at 37° C. with a 60 see shaking before each time point. For determining the minimal inhibitory concentration, 10 μL of secondary suspension was inoculated into a total of 200 μL of medium containing 0.25 to 50 μM of isoalloLCA.
Therefore, next, it was investigated whether 3-oxoLCA and isoalloLCA had the ability to inhibit the growth of C. difficile. […]

Treg cells = details: reported [30]; cited from earlier work
[3] = system: gram-positive symbiotic bacteria; experiment: Growth inhibition of intestinal symbiotic bacteria; format: cell-based
human fecal microbiota = experiment: Culturing human feces with bile acids, 16S rRNA gene sequencing; format: cell-based; details: 50 μM, 48 hr
Method: Human fecal culture was conducted in 96-deep well plates (Treff Lab) using stool samples obtained from young and healthy donors. […] Fecal cultures with a final concentration of 50 μM bile acids (LCA, 3-oxoLCA, and isoalloLCA) were incubated anaerobically for 48 hr at 37° C. DNA was extracted from the fecal sample culture for 16S metagenomic sequencing as described above.
In addition, in order to assess the effects of isoalloLCA on the complex normal intestinal microbiota, human fecal microbiota from young, healthy sample donors were cultured using isoalloLCA, 3-oxoLCA, LCA, or control systems and analyzed for bacterial microbiota changes by 16S rRNA gene sequencing.

[4] = system: vancomycin-resistant Enterococcus faecium (VRE); experiment: Bacterial growth inhibition assay (OD 600); format: cell-based
Description: as §4, §5

Lactobacillus strain = experiment: Growth inhibition of intestinal symbiotic bacteria; format: cell-based
gram-negative pathogens = experiment: Bacterial growth inhibition assay, gram-negative pathogen panel; format: cell-based; details: all bacteria in the gram-negative pathogen panel
VRE = experiment: Electron microscopy (SEM/TEM) after isoalloLCA treatment; format: cell-based, Enterococcus faecium; details: 8 μM isoalloLCA, 5 hours, WCA medium
Method: as §1, §2, §3

[5] = system: gram-negative symbiotic bacteria; experiment: Growth inhibition of intestinal symbiotic bacteria; format: cell-based; details: most gram-negative symbiotic bacteria such as Bacteroides; WCA and BHI media
[6] = system: C. sporogenes, C. indolis, and C. HGF2 (innocuum); experiment: Scanning electron microscopy of symbiotic bacteria; format: cell-based; details: 2.5 μM isoalloLCA, 5 hours, WCA medium
Method: FIG. 16B is a set of photographs showing typical results obtained by observing C. difficile 630, C. sporogenes, C. indoli, and C. HGF2 (innocuum) with a scanning electron microscope after culturing for 5 hours in a WCA medium containing control or 2.5 μM isoalloLCA. […] Scale bars indicate 5.0 μm and 1.0 μm. The arrowheads indicate a shape change after isoalloLCA treatment.
as §2

C. difficile VPI10463 = experiment: Bacterial growth inhibition assay (OD 600); format: cell-based, Clostridioides difficile; details: toxin-producing strain
Description: as §4, §5

prostate cancer cell = details: by reducing E-cadherin expression; reported [63, 64]; cited from earlier work
estrogen receptor R (ER) = estrogen receptor R (ER) (Homo sapiens, UniProt Q92731); details: reported [63, 64]; cited from earlier work
Sequence of estrogen receptor R (ER) (Q92731 whole entry): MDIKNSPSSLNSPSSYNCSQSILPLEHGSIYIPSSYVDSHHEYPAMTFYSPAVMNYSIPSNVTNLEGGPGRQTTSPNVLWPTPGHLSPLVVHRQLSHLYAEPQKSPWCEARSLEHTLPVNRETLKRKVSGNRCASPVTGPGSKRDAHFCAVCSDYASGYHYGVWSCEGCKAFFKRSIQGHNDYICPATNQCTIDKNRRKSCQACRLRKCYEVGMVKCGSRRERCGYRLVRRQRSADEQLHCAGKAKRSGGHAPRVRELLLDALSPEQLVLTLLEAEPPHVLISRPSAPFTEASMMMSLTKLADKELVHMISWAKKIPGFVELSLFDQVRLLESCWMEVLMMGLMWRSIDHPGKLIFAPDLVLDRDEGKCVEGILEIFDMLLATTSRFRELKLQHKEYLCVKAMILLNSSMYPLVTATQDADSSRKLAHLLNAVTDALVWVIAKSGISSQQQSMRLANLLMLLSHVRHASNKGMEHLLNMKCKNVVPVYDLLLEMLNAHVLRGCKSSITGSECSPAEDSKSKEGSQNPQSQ

androgen receptor (AR) = molecular target: T1, androgen receptor (AR) (Homo sapiens, UniProt P10275); details: reported [28, 63, 64]; cited from earlier work
T1 sequence (P10275 1-920): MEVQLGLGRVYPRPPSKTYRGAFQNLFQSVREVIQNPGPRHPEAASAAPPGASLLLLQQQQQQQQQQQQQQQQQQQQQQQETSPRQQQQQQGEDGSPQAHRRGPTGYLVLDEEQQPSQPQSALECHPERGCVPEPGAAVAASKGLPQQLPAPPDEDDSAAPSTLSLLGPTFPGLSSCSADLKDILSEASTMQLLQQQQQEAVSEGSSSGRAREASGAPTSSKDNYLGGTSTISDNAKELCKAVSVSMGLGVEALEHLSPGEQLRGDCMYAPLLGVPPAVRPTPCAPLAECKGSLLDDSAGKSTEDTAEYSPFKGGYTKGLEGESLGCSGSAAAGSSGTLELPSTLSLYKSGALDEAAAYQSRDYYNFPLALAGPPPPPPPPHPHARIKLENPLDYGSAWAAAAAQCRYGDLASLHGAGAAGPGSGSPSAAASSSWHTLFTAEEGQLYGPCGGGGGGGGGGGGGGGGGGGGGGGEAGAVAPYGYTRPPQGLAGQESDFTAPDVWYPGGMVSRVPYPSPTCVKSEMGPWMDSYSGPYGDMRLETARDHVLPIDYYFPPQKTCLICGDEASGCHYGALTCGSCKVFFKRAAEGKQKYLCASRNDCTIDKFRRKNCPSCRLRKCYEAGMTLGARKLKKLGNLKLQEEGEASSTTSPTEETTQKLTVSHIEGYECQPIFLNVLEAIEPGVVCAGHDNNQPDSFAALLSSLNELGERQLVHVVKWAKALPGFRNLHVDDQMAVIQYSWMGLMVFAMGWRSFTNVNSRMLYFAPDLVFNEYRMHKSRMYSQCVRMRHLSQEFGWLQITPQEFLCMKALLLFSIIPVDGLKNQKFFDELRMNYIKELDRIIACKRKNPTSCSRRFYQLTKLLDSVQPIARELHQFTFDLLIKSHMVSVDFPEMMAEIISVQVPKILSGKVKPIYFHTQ

[7] = compared to other bile acid compounds

Which “inhibition of growth of Clostridioides difficile” value (Clostridioides difficile) does the source give for `C[C@H](CCC(=O)O)[C@H]1CC[C@H]2[C@@H]3CC[C@@H]4C[C@@H](O)CC[C@]4(C)[C@H]3CC[C@]12C` [isoLCA, Iso-lithocholic acid] here?
The value was “inhibiting the growth”.

And the TH17 cell suppression (T helper 17 (TH17) cells)?
Its TH17 cell suppression is “suppress T helper 17 (TH17) cells”.

With `C[C@H](CCC(=O)O)[C@H]1CC[C@H]2[C@@H]3CC[C@H]4C[C@@H](O)CC[C@]4(C)[C@H]3CC[C@]12C` [isoalloLCA, Iso-allo-lithocholic acid] as the compound, how does the “bactericidal effect, morphological and hyperfine structure changes” value (C. difficile 630 [1]) read?
The value was “bactericidal and results in morphological changes and hyperfine structure changes”.

What about the “minimum inhibitory concentration (MIC90) required to prevent growth of 90% or more” value (C. difficile 630 [2]; WCA medium) of the same compound?
Its value is 2.0 µM.

What about the growth inhibition (C. difficile 630 [2]; in vitro, optical density over time) of the same compound?
The growth inhibition was “strongly inhibited the growth”.

What about the Treg cell induction (Treg cells) of the same compound?
Its Treg cell induction is “induces Treg cells”.

And the “MIC90 value of the symbiotic strains relative to pathogens” value [3]?
The value was “generally higher than that of the pathogens”.

What about the “resistance of symbiotic strain in BHI medium compared to WCA medium” value ([3]; BHI medium rich in peptone and amino acids) of the same compound?
The value was “increased resistance”.

And the effect on growth ([3]; WCA and BHI media)?
The effect on growth was “reliably inhibited the growth”.

And the “change in gram-negative bacteria (Bacteroides, Alistipes)” value (human fecal microbiota; [7])?
The value was “corresponding increase”.

What about the “change in gram-positive bacteria (Clostridium, Faecalibacterium, Bifidobacterium, Streptococcus)” value (human fecal microbiota; [7]) of the same compound?
Its value is “more pronounced decrease”.

What about the “α-diversity (Shannon index) of fecal culture” value (human fecal microbiota; feces of young healthy donors) of the same compound?
The value was “not significantly affected”.

And the bacterial community structure (human fecal microbiota; phylum level)?
Its bacterial community structure is “clear widespread change in the bacterial community structure”.

What about the growth inhibition [4] of the same compound?
The growth inhibition was “Strong growth inhibition”.

And the “resistance to the inhibitory effect” value (Lactobacillus strain)?
The value was “highly resistant”.

What about the “resistant at the highest concentration tested” value (gram-negative pathogens) of the same compound?
Its value is greater than 50 µM.

And the “bactericidal effect, morphological and hyperfine structure changes” value (VRE)?
Its value is “bactericidal and results in morphological changes and hyperfine structure changes”.

And the effect on growth [5]?
The effect on growth was “did not significantly affect the growth”.

And the “cell wall structure by scanning electron microscopy” value [6]?
The value was “cell wall structure of the symbiotic bacteria was maintained”.

What about the growth inhibition (C. difficile VPI10463) of the same compound?
The growth inhibition was “Strong growth inhibition”.

Which TH17 cell suppression (T helper 17 (TH17) cells) does the source give for `C[C@H](CCC(=O)O)[C@H]1CC[C@H]2[C@@H]3CC[C@@H]4CC(=O)CC[C@]4(C)[C@H]3CC[C@]12C` [St 3-oxoLCA, 3-Oxo-lithocholic acid, reference compound] here?
The TH17 cell suppression was “suppress T helper 17 (TH17) cells”.

Which “prostate cancer cell migration” value (prostate cancer cell) does the source give for `C[C@]12CC[C@H](O)C[C@@H]1CC[C@@H]1[C@@H]2CC[C@]2(C)[C@@H](O)CC[C@@H]12` [3β-androstanediol] here?
Its value is “inhibits prostate cancer cell migration”.

And the estrogen receptor activation (estrogen receptor R (ER))?
Its estrogen receptor activation is “activates estrogen receptor R (ER)”.

What about the “binding to AR” value (androgen receptor (AR)) of the same compound?
The value was “without binding to AR”.
